Experimental data taken from US5908868A, “Retinol derivatives useful for enhancing immune response” (priority 1995, dated 1999).
Entries after “also recorded” stand apart in the source; their conditions may differ.

What was measured:
blast cells (thymocytes) = assay: Flow cytometry phenotype of blast cells from activated thymocyte cultures; format: cell-based, BALB/c mouse; details: retinol- and 14HRR-supported cultures, data not shown
Experimental: To determine the phenotype of blast cells generated in the thymocyte cultures stimulated with immobilized anti-CD3 antibody and retinoids as well as the purity of CD4 and CD8 subsets isolated from pooled mouse lymph nodes, cells (10^5 -10^6 cells/sample), stained with FITC-conjugated anti-CD4 antibody and PE-conjugated anti-CD8 antibody, were analyzed by two-color flow cytometry with a FACScan. Dead cells were eliminated by forward low-angle scatter. Isotope controls were included in all experiments. To determine the phenotypes of activated thymocytes only blast cells were gated for collection and analysis.

5/2 cells = assay: Growth (DNA synthesis, [3H]thymidine) of lymphoblastoid 5/2 cells in serum-free medium; format: cell-based, human; details: for restoration of capacity to proliferate: ITLB medium without retinol
Experimental: Washed 5/2 cells (5,000/well) were incubated for 72 hours in HB101 medium with the indicated amounts of retinoids. DNA synthesis was measured by [^3 H] thymidine uptake. The measurements were done in triplicate. The SDs were <15%.
In FIGS. 4B to 4D, 5/2 cells were washed twice and seeded at a concentration of 150,000 cells/ml in HB 101 medium. Triplicate samples of 100 μl of cell suspension were removed daily and pulsed for 6 hours with [^3 H] thymidine. Means are shown. The SDs were never >20%.
P3 was purified as described in the Experimental Details section. 5/2 cells (5,000/well) were incubated for 72 hours in HB101 medium and refed with the indicated amount of retinoid daily. DNA synthesis was measured by [^3 H]-thymidine uptake. P3 is bioactive down to a concentration of 10-^8 M (FIG. 8). […] This is due either to chemical instability or to a more rapid metabolic degradation of P3 by the cells.
The assay was done in 96-well microtiter plates in a final volume of 200 ul/well. The cells were cultured for 72 hours and cell growth determined by [^3 H] thymidine (0.8 μCi/well)labeling for the last 16 hours. Retinoids were added at the indicated concentrations at the initiation of culture and every 24 hours thereafter.
The human EBV-transformed B-cell line 5/2 was established from the peripheral blood of a healthy donor. The cell line was grown in RPMI 1640 supplemented with 8% fetal calf serum, L-glutamine (2 mM), and antibiotics. The cell line was tested regularly for mycoplasma infections and was consistently negative.
The assay system is a modification of the assay developed by Blazar et al. (12). […] Assays were done in 96 well microtiter plates in a final volume of 200 μl/well or in 25 cm^2 tissue culture flasks. The cells in the microtiter plates were cultured for 72 hours and cell growth was determined by labeling for the last 16 hours with 0.8 μCi/well of [^3 H]thymidine (sp. act. 6.7 Ci/mmol). Growth in the culture flasks was determined in three aliquots of 100 μl taken at 24 hours intervals and cultured in the presence of 0.8 μCi of [^3 H]thymidine for an additional 6 hour period. To determine the viable cell number, nine aliquots per time point were differentially counted in a Neubauer chamber in the presence of trypan blue.
5/2 cells were grown in the absence of retinol in a medium containing the basic RPMI 1640 amino acid/salt mixture, insulin (5 μg/ml), transferrin (5 μg/ml), albumin (0.1%) and linoleic acid (10^-6 M) (ITLB). […] The dose-response curve shown in FIG. 26 indicates an effective concentration of 10^-7 M.

T cells = assay: T cell activation/proliferation; format: cell-based, murine; details: for T cell activation on its own: without mitogen; for substitution for retinol in T cell activation: with mitogen/anti-CD3
Experimental: They were seeded into 96-well flat-bottom plates at varying cellular densities in a final volume of 100 μl. In control experiments, cells were cultured in medium containing 10% FCS or 3% human serum and 5×10^-5 M 2 ME. […] Cultures were carried out in duplicate. Plates were incubated at 37° C. in a humidified 5% CO2 atmosphere. Cellular proliferation was determined by [^3 H] thymidine uptake (0.5 uCi/well; New England Nuclear, Boston, Mass.) after the incubation times indicated for each experiment with a 4 hour labeling pulse. Cells were harvested onto glass filter and [^3 H]TdR incorporation was determined by liquid scintillation counting. The data presented are the means of duplicate or six replicate cultures. The restriction to duplicate measurements was necessary to conserve scarce 14HRR. […] Each experiment was repeated at least twice.

SMILES	CD4+ cells among blast cells (blast cells (thymocytes)) [%]	CD8+ cells among blast cells (blast cells (thymocytes)) [%]	support of 5/2 cell growth (5/2 cells; HB101 medium)	restoration of capacity to proliferate (5/2 cells)	activation in FCS-containing medium in absence of APC (T cells; additional retinol supplied, FCS medium)	optimally effective dose (T cells; given once in a 3-day culture) [µM]	optimally effective dose (T cells; provided at 12 hour intervals) [µM]	T cell activation on its own (T cells)	minimal effective concentration (5/2 cells; Homo sapiens, 72 h, HB101 medium, refed daily, read-out: bioactive down to a concentration) [µM]	need to replenish cultures (5/2 cells; chemical instability or more rapid metabolic degradation)	activity relative to all-trans retinol in T cells (T cells)	substitution for retinol in T cell activation (T cells)	substitution for retinol in T cell activation (T cells; listed as 14-hydroxy-retro-retinol)
CC1=C(/C=C/C(C)=C/C=C/C(C)=C/CO)C(C)(C)CCC1 [retinol, all-trans retinol]	~70	~30	enable 5/2 cells to grow	restores the capacity to proliferate	no activation	2	0.2	unable to activate T cells on their own	–	–	–	–	–
CC(C=CC=C(C)C(O)CO)=CC=C1C(C)=CCCC1(C)C (stereo not drawn) [14HRR, 14-hydroxy-4,14-retro-retinol]	~70	~30	active and capable of replacing retinol	restores the capacity to proliferate	–	–	–	unable to activate T cells on their own	0.01	cultures have to be replenished daily	as active	capable of supporting T cell activation and proliferation	effectively supports T cell activation in conjunction with a mitogen in lieu of retinol; also recorded: capable of supporting activation and sustaining proliferation of T cells
